Test results: patent publication US11535629B2, “Dioxoloisoquinolinone derivatives and use thereof” (HANMI PHARMACEUTICAL CO., LTD., priority 2020, dated 2022)
pIC50: −log10 of the molar value. Where two headings read alike, the source gives them in different places.

Assays:
[1] = target: EZH1 (Homo sapiens (Human), UniProt Q92800); assay: EZH1 methyltransferase inhibitory activity (radiometric scintillation proximity assay); details: for IC50: read-out: Enzyme inhibitory activity (IC50, nM) EZH1, 2.3 nmol/L EZH1, 90 minutes at room temperature
Sequence of EZH1 (Q92800 whole entry): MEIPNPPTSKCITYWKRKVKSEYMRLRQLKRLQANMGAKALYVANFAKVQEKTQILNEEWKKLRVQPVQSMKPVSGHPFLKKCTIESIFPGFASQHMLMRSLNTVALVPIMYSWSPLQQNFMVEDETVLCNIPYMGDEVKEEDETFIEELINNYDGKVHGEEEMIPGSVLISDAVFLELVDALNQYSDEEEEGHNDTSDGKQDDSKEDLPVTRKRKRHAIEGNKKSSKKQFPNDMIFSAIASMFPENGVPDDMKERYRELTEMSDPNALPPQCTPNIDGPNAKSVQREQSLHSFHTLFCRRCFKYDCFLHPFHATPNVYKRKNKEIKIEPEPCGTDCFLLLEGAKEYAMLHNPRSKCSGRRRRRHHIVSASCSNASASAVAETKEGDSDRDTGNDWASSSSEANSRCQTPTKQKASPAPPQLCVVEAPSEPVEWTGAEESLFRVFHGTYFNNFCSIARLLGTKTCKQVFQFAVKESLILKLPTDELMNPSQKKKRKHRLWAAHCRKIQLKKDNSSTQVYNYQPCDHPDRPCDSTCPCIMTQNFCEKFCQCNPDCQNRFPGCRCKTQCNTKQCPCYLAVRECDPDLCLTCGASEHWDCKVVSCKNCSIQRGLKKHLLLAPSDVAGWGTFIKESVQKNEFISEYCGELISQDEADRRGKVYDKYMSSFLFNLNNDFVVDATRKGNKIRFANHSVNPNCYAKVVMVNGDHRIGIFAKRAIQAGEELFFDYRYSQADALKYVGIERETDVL
Sequence of EZH1 (O75530 whole entry partner): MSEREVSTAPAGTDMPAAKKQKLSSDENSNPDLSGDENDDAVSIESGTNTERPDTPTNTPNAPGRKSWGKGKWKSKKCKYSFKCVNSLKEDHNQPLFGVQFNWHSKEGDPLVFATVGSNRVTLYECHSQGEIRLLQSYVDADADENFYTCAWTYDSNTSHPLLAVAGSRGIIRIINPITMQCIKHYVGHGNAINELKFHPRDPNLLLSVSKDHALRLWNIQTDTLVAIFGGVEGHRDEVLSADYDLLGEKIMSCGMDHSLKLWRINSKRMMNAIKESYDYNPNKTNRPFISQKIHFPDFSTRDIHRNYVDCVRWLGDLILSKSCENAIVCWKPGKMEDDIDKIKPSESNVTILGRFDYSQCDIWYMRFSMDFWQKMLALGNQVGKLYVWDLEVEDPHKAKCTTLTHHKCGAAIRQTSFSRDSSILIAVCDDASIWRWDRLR
Sequence of EZH1 (Q15022 whole entry partner): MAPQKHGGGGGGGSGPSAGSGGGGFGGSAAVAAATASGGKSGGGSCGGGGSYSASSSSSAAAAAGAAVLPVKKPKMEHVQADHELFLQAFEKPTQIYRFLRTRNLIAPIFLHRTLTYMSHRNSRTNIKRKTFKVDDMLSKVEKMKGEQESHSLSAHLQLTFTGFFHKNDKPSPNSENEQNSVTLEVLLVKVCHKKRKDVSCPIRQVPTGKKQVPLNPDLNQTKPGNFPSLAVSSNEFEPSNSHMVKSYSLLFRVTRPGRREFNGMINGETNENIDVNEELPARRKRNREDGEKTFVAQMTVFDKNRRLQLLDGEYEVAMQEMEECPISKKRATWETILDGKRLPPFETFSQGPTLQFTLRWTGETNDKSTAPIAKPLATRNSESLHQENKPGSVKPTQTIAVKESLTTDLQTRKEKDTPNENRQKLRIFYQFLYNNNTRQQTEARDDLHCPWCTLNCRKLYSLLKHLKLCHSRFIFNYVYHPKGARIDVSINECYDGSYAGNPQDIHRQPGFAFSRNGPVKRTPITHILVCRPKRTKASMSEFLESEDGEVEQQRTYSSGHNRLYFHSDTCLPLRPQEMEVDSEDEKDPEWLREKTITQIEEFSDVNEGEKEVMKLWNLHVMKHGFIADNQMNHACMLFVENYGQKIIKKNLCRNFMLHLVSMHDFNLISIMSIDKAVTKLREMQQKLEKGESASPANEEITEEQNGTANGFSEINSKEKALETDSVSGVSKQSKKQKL
Sequence of EZH1 (Q09028 whole entry partner): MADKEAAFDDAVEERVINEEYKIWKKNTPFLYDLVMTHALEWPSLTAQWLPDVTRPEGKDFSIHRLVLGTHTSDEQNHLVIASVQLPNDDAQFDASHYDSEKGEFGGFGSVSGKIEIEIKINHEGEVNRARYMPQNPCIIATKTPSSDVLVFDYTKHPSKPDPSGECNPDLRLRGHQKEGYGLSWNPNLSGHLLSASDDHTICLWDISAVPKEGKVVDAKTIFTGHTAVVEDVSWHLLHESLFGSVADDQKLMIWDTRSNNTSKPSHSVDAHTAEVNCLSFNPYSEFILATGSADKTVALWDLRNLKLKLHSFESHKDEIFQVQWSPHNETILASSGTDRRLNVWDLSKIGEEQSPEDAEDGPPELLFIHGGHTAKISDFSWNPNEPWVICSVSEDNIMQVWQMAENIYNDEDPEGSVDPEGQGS
Sequence of EZH1 (Q6ZN18 whole entry partner): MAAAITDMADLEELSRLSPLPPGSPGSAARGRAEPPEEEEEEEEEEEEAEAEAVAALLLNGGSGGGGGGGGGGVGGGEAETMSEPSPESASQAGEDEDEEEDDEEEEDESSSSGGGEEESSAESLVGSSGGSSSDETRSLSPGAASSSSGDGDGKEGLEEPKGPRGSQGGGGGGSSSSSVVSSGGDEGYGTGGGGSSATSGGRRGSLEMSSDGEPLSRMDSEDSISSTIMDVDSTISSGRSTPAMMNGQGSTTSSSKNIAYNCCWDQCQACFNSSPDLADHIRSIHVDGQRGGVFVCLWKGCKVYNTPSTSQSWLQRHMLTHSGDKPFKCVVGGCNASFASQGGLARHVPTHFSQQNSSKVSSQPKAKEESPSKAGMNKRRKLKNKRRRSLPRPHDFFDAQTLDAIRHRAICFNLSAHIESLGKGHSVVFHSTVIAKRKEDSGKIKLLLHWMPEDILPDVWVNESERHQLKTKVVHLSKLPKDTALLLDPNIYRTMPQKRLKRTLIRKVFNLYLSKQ
Method: The inhibitory activity of the synthesized compounds above against EZH1 or EZH2 methyltransferase was measured. The experiments were consigned to Reaction Biology, and EZH1 or EZH2 activity was measured using a radiometric scintillation proximity assay. […] The buffer solution was comprised of 50 mmol/L Tris-HCl pH 8.0, 50 mmol/L NaCl, 1 mmol/L EDTA, 1 mmoL/L DTT, 1 mmol/L PMSF and 1% DMSO. Trichloroacetic acid was added to end the reaction, and SPA beads coated with PVT streptavidin were added followed by 1 hour reaction at room temperature. A TopCount NXT plate reader was used to measure the methylation value of the substrate peptide. The measured values were converted to percent activity, setting the mean value for wells treated with DMSO as 100% and the background mean value as 0%.

[2] = system: KARPAS-422 cells; assay: Cell growth inhibition test (CTG method); assay type: cell-based; details: KARPAS-422 (EZH2^Y641N mutant), culturing for 7 days, read-out: Cell growth inhibitory activity (GI50, nM) KARPAS-422 (EZH2^Y641N mutant)
Method: The cultured cell strain was prepared at 1.8×10^4 cells/400 μL and placed in a 48-well plate.

[3] = Homo sapiens, KARPAS-422, 168 h

pIC50 [1] | GI50 [2] [nM] | GI50 [2, 3] [nM] | IC50 [1] [nM] | SMILES
7.82 | 4.5 | – | – | Cc1cc(C)c(CN2CCc3c(Cl)c4c(c(C)c3C2=O)OC(C)(C23CCC(N(C)C)(CC2)CC3)O4)c(=O)[nH]1 (single isomer, unassigned) [Compound 2, 9-chloro-6-((4,6-dimethyl-2-oxo-1,2-dihydropyridin-3-yl)methyl)-2-(4-(dimethylamino)bicyclo[2.2.2]octan-1-yl)-2,4-dimethyl-7,8-dihydro-[1,3]dioxolo[4,5-g]isoquinolin-5(6H)-one]
7.77 | 4.5 | – | – | COc1cc(C)[nH]c(=O)c1CN1CCc2c(Cl)c3c(c(C)c2C1=O)OC(C)(C12CCC(N(C)C)(CC1)CC2)O3 (single isomer, unassigned) [Compound 5, 9-chloro-2-(4-(dimethylamino)bicyclo[2.2.2]octan-1-yl)-6-((4-methoxy-6-methyl-2-oxo-1,2-dihydropyridin-3-yl)methyl)-2,4-dimethyl-7,8-dihydro[1,3]dioxolo[4,5-g]isoquinolin-5(6H)-one]
6.78 | 3.9 | – | – | CSc1cc(C)[nH]c(=O)c1CN1CCc2c(Cl)c3c(c(C)c2C1=O)OC(C)(C12CCC(N(C)C)(CC1)CC2)O3 (single isomer, unassigned) [Compound 8, 9-chloro-2-(4-(dimethylamino)bicyclo[2.2.2]octan-1-yl)-2,4-dimethyl-6-((6-methyl-4-(methylthio)-2-oxo-1,2-dihydropyridin-3-yl)methyl)-7,8-dihydro[1,3]dioxolo[4,5-g]isoquinolin-5(6H)-one]
7.82 | 3.8 to 12 | – | – | Cc1cc(C)c(CN2CCc3c(Br)c4c(c(C)c3C2=O)OC(C)(C23CCC(N(C)C)(CC2)CC3)O4)c(=O)[nH]1 (single isomer, unassigned) [Compound 11, 9-bromo-6-((4,6-dimethyl-2-oxo-1,2-dihydropyridin-3-yl)methyl)-2-(4-(dimethylamino)bicyclo[2.2.2]octan-1-yl)-2,4-dimethyl-7,8-dihydro-[1,3]dioxolo[4,5-g]isoquinolin-5(6H)-one]
7.92 | – | 3.7 to 6.8 | – | Cc1cc(C)c(CN2CCc3c(C)c4c(c(C)c3C2=O)OC(C)(C23CCC(N(C)C)(CC2)CC3)O4)c(=O)[nH]1 (single isomer, unassigned) [Compound 23, 6-((4,6-dimethyl-2-oxo-1,2-dihydropyridin-3-yl)methyl)-2-(4-(dimethylamino)bicyclo[2.2.2]octan-1-yl)-2,4,9-trimethyl-7,8-dihydro-[1,3]dioxolo[4,5-g]isoquinolin-5(6H)-one]
8.00 to 8.08 | – | 3.9 to 8.4 | – | Cc1cc(C)c(CN2CCc3c(c(C)c4c(c3-c3ccco3)O[C@](C)([C@H]3CC[C@H](N(C)C)CC3)O4)C2=O)c(=O)[nH]1 [Compound 30, (R)-6-((4,6-dimethyl-2-oxo-1,2-dihydropyridin-3-yl)methyl)-2-(trans-4-(dimethylamino)cyclohexyl)-9-(furan-2-yl)-2,4-dimethyl-7,8-dihydro-[1,3]dioxolo[4,5-g]isoquinolin-5(6H)-one]
– | – | 3.4 | 12 | Cc1cc(C)c(CN2CCc3c(c(C)c4c(c3-c3cccs3)O[C@](C)([C@H]3CC[C@H](N(C)C)CC3)O4)C2=O)c(=O)[nH]1 [Compound 32, (R)-6-((4,6-dimethyl-2-oxo-1,2-dihydropyridin-3-yl)methyl)-2-(trans-4-(dimethylamino)cyclohexyl)-2,4-dimethyl-9-(thiophen-2-yl)-7,8-dihydro-[1,3]dioxolo[4,5-g]isoquinolin-5(6H)-one]
– | – | 3.7 | 32 | Cc1cc(C)c(CN2CCc3c(c(C)c4c(c3-c3ccncc3)O[C@](C)([C@H]3CC[C@H](N(C)C)CC3)O4)C2=O)c(=O)[nH]1 [Compound 34, (R)-6-((4,6-dimethyl-2-oxo-1,2-dihydropyridin-3-yl)methyl)-2-(trans-4-(dimethylamino)cyclohexyl)-2,4-dimethyl-9-(pyridin-4-yl)-7,8-dihydro-[1,3]dioxolo[4,5-g]isoquinolin-5(6H)-one]
– | – | 4.4 to 5.5 | 22 | Cc1cc(C)c(CN2CCc3c(c(C)c4c(c3-c3ccc(C)o3)O[C@](C)([C@H]3CC[C@H](N(C)C)CC3)O4)C2=O)c(=O)[nH]1 [Compound 40, (R)-6-((4,6-dimethyl-2-oxo-1,2-dihydropyridin-3-yl)methyl)-2-(trans-4-(dimethylamino)cyclohexyl)-2,4-dimethyl-9-(5-methylfuran-2-yl)-7,8-dihydro-[1,3]dioxolo[4,5-g]isoquinolin-5(6H)-one]
– | – | 5.1 | 14 | Cc1cc(C)c(CN2CCc3c(c(C)c4c(c3-c3cccnc3)O[C@](C)([C@H]3CC[C@H](N(C)C)CC3)O4)C2=O)c(=O)[nH]1 [Compound 44, (R)-6-((4,6-dimethyl-2-oxo-1,2-dihydropyridin-3-yl)methyl)-2-(trans-4-(dimethylamino)cyclohexyl)-2,4-dimethyl-9-(pyridin-3-yl)-7,8-dihydro-[1,3]dioxolo[4,5-g]isoquinolin-5(6H)-one]
– | – | 5.5 | 20 | Cc1cc(C)c(CN2CCc3c(c(C)c4c(c3-c3cccn3C)O[C@](C)([C@H]3CC[C@H](N(C)C)CC3)O4)C2=O)c(=O)[nH]1 [Compound 48, (R)-6-((4,6-dimethyl-2-oxo-1,2-dihydropyridin-3-yl)methyl)-2-(trans-4-(dimethylamino)cyclohexyl)-2,4-dimethyl-9-(1-methyl-1H-pyrrol-2-yl)-7,8-dihydro-[1,3]dioxolo[4,5-g]isoquinolin-5(6H)-one]
– | – | 4.9 | 22 | Cc1cc(C)c(CN2CCc3c(c(C)c4c(c3-c3ccsc3)O[C@](C)([C@H]3CC[C@H](N(C)C)CC3)O4)C2=O)c(=O)[nH]1 [Compound 50, (R)-6-((4,6-dimethyl-2-oxo-1,2-dihydropyridin-3-yl)methyl)-2-(trans-4-(dimethylamino)cyclohexyl)-2,4-dimethyl-9-(thiophen-3-yl)-7,8-dihydro-[1,3]dioxolo[4,5-g]isoquinolin-5(6H)-one]
– | – | 5.9 | 18 | Cc1cc(C)c(CN2CCc3c(c(C)c4c(c3-c3cncs3)O[C@](C)([C@H]3CC[C@H](N(C)C)CC3)O4)C2=O)c(=O)[nH]1 [Compound 52, (R)-6-((4,6-dimethyl-2-oxo-1,2-dihydropyridin-3-yl)methyl)-2-(trans-4-(dimethylamino)cyclohexyl)-2,4-dimethyl-9-(thiazol-5-yl)-7,8-dihydro-[1,3]dioxolo[4,5-g]isoquinolin-5(6H)-one]
